pEC50: −log10 of the molar value. Where two headings read alike, the source gives them in different places.
Tests used:
[1] = test system: Leishmania donovani axenic amastigote parasites; assay: Leishmania donovani axenic amastigote proliferation assay (Cell TiterGlo luminescence, 2 day incubation); assay type: cell-based; details: Leishmania donovani, read-out: L. donovani amastigotes EC50
[2] = test system: Trypanosoma brucei Lister 427 strain, bloodstream form; assay: Assay for proliferation of kinetoplastid parasite Trypanosoma brucei (Cell Titer Glo, 48 hours); assay type: cell-based; details: Trypanosoma brucei, T. brucei Lister 427 bloodstream form, read-out: T. brucei EC50
Method in brief: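 Bloodstream-form T. brucei Lister 427 in HMI-9 medium was exposed to compound (DMSO vehicle) for 48 hours at 37° C, 5% CO2. Parasite growth was read as ATP by CellTiter-Glo luminescence, with EC50 calculated from percent inhibition.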

[3] = test system: Trypanosoma cruzi amastigotes (Tulahuen strain expressing Lac-Z) cultured in 3T3 fibroblast cells; assay: microbe, parasite or virus in culture; assay type: cell-based; details: Trypanosoma cruzi, TULAHUEN, Fibroblast, T. cruzi amastigotes in 3T3 fibroblast cells, read-out: T cruzi EC50
[4] = test system: L. donovani HU3 strain in mouse peritoneal macrophages; assay: Assay for proliferation of Leishmania parasites in infected mouse peritoneal macrophages (SybrGreen staining, high-content imaging, 5 days); assay type: cell-based, Leishmania donovani; details: Leishmania donovani, Peritoneal macrophage, L. donovani in mouse peritoneal macrophages, read-out: L. donovani Macrophage EC50
[5] = axenic amastigotes, inhibition of proliferation

| SMILES | pEC50 ([1]; L. donovani axenic amastigotes) | pEC50 [2] | pEC50 [3] | pEC50 [4] | pEC50 [1, 5] | pEC50 ([2]; inhibition of proliferation) | pEC50 ([3]; inhibition of proliferation) | pEC50 ([4]; inhibition of proliferation) |
| --- | --- | --- | --- | --- | --- | --- | --- | --- |
| Cc1nc(C)c(C(=O)Nc2ccc(F)c(-c3cn4cc(-c5ccc(NC(C)C)cc5)cnc4n3)c2)o1 [Compound 380] | 4.61 | 4.51 | 4.85 | 4.47 |  |  |  |  |
| Cc1nc(C)c(C(=O)Nc2ccc(F)c(-c3cn4cc(NC(=O)C5CCC(=O)O5)cnc4n3)c2)o1 (centres unmarked) [Compound 156] |  |  |  |  | 5.41 | 4.97 | < 4.70 | < 4.30 |
| CC(=O)c1ccc(C(=O)Nc2ccc(F)c(-c3cn4cc(NC(=O)OC(C)C)cnc4n3)c2)s1 [Compound 83] |  |  |  |  | 4.81 | < 4.30 | 5.15 | 5.17 |
| O=C(Nc1ccc(F)c(-c2cn3cc(Cl)cnc3n2)c1)N1CC[C@@H](F)C1 [Compound 236] |  |  |  |  | 7.02 | 7.44 | 7.01 | 6.36 |
| COCCOc1cnc2nc(-c3cc(NC(=O)c4oc(C)nc4C)ccc3F)cn2c1 [Compound 547, N-(4-fluoro-3-(6-(2-methoxyethoxy)imidazo[1,2-a]pyrimidin-2-yl)phenyl)-2,4-dimethyloxazole-5-carboxamide] | 6.07 | 6.22 | 5.87 | 5.34 |  |  |  |  |
| Cc1nc(C)c(C(=O)Nc2ccc(F)c(-c3cn4cc(-c5cncc(F)c5)cnc4n3)c2)o1 [Compound 443] | 7.09 | 7.47 | 6.99 | 6.84 |  |  |  |  |
| Cc1nc(C)c(C(=O)Nc2ccc(F)c(-c3cn4cc(C5=CCCCO5)cnc4n3)c2)o1 [Compound 373] | 6.94 | 7.36 | 7.08 | 6.87 |  |  |  |  |
| Cc1nc(C)c(C(=O)Nc2ccc(F)c(-c3cn4cc(NC(=O)OC(C)C)cnc4n3)c2)s1 [Compound 68] |  |  |  |  | 4.85 | 4.85 | 5.44 | 4.41 |
| Cc1nc(C)c(C(=O)Nc2ccc(F)c(-c3cn4cc(OCC5CC5)cnc4n3)c2)o1 [Compound 610] | 6.92 | 6.82 | 6.96 | 6.57 |  |  |  |  |
| COC1CCC(C(=O)Nc2cnc3nc(-c4cc(NC(=O)c5oc(C)nc5C)ccc4F)cn3c2)CC1 (centres unmarked) [Compound 169] |  |  |  |  | 6.15 | 6.28 | 5.41 | 5.62 |
| Cc1nc(C)c(C(=O)Nc2ccc(F)c(-c3cn4cc(NC5=NCC(C)(C)O5)cnc4n3)c2)o1 [Compound 507] | 5.73 | 5.90 | 5.00 | 5.24 |  |  |  |  |
| Cc1nc(C)c(C(=O)Nc2ccc(F)c(-c3cn4cc(NC(=O)c5ncco5)cnc4n3)c2)o1 [Compound 188] |  |  |  |  | 6.65 | 6.73 | 5.91 | < 5.25 |
| CN(C)C(=O)Nc1ccc(F)c(-c2cn3cc(Cl)cnc3n2)c1 [Compound 225] |  |  |  |  | 5.79 | 6.33 | 5.92 | 5.08 |
| Cc1nc(C)c(C(=O)Nc2ccc(F)c(-c3cn4cc(C(C)c5ccccc5)cnc4n3)c2)o1 (centres unmarked) [Compound 420] | 6.08 | 6.28 | 6.51 | 5.96 |  |  |  |  |
| O=C(Nc1ccc(F)c(-c2cn3cc(C4=CCOCC4)cnc3n2)c1)N1CC(F)(F)C1 [Compound 320] |  |  |  |  | 7.24 | 7.46 | 6.73 | 6.74 |
| COC1CCC(C(=O)Nc2ccc(F)c(-c3cn4cc(C5CC5)cnc4n3)c2)CC1 (centres unmarked) [Compound 597] | 4.62 | 4.50 | 4.80 | 4.77 |  |  |  |  |
| Cc1nc(C)c(C(=O)Nc2ccc(F)c(-c3cn4cc(NC(=O)C5COCCO5)cnc4n3)c2)o1 (centres unmarked) [Compound 113] |  |  |  |  | 6.59 | 6.34 | 5.52 | 6.30 |
| CN(C)C(=O)Nc1ccc(F)c(-c2cn3cc(N(C)C)cnc3n2)c1 [Compound 583, 3-(3-(6-(dimethylamino)imidazo[1,2-a]pyrimidin-2-yl)-4-fluorophenyl)-1,1-dimethylurea] | 6.06 | 6.86 | 6.42 | 5.75 |  |  |  |  |
| CC(C)OC(=O)Nc1cnc2nc(-c3cc(NC(=O)c4cocn4)ccc3Cl)cn2c1 [Compound 43] |  |  |  |  | 6.11 | 6.32 | 6.39 | 5.41 |
| Cc1nc(C)c(C(=O)Nc2ccc(F)c(-c3cn4cc(Nc5ncccc5C(F)(F)F)cnc4n3)c2)o1 [Compound 488] | 7.49 | 7.24 | 7.44 | 6.88 |  |  |  |  |
